The supplement of paper PMC11208160

What was measured:
[1] = recombinant barcode read abundance after kanamycin selection (control-corrected) (log10(CPM+1)); higher = more efficient recombination; sequences stand for … in AGTGCAGAGAAAATCGGCCAGTTTTCTCTGCCTGCAGTCCGCATGCCGT…ATTTATGCAGCGGACTGCCTTTCTCCCAAAGTGATAAACCGGACAGTATCATGGACCGGTTTTCCCGGTAATCCGTATTTGCAAGGTTGGTTTCACT; site = the 11-nt target
Description: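 Same pooled E. coli target screen (IS621 bridge recombinase, kanamycin selection, control-corrected CPM, mean of 2 biological replicates). Here the two core-binding nucleotides of the LTG and RTG of the bridge RNA target-binding loop are mutated. Target and donor CT cores are held constant, and the other 9 guide positions match the target. The target is read from the library oligo sequence. Molecule = full bridge RNA written as DNA: nt 1-80 from the library oligo, rest WT scaffold.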

[2] = recombinant barcode read abundance after kanamycin selection (control-corrected) (log10(CPM+1)); higher = more efficient recombination; sequences stand for … in AGTGCAGAGAAAATCGGCCAGTTTTCTCTGCCTGCAGTCCGCATGCCGT…AGATTTATGCAGCGGACTGCCTTTCTCCCAAAGTGATAAACCGGACAGTATCATGGACCGGTTTTCCCGGTAATCCGTATTTGCAAGGTTGGTTTCACT; site = the 11-nt target
In short: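 IS621 bridge RNA target-binding loops were paired with targets in a pooled library tested in E. coli. After co-electroporation with a donor plasmid, cells were plated in two replicates on chloramphenicol/ampicillin LB agar (control) and on chloramphenicol/ampicillin/kanamycin carrying 0.1 mM IPTG. Barcodes at recombinant junctions were counted as counts per million, averaged and control-corrected to give recombination efficiency. Values are log10(CPM+1).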

Row | Sequence | recombinant barcode read abundance (log10) [1] | recombinant barcode read abundance (log10) [2]
1 | AAACACAACTGGGTTCTAACCTGTTGCCTAG [AAACACACTAG_LTGcore_AC_RTGcore_CT] (site AAACACACTAG) (LTG core: AC, RTG core: CT) | 0.0236 | –
2 | AAACACAAGTGGGTTCTAACCTGTTGCCTCT [AAACACACTAG_LTGcore_AG_RTGcore_AG] (site AAACACACTAG) (LTG core: AG, RTG core: AG) | 0.196 | –
3 | AAACACACATGGGTTCTAACCTGTTGCCTTG [AAACACACTAG_LTGcore_CA_RTGcore_CA] (site AAACACACTAG) (LTG core: CA, RTG core: CA) | 0.341 | –
4 | AAACACACTTGGGTTCTAACCTGTTGCCTAC [AAACACACTAG_LTGcore_CT_RTGcore_GT] (site AAACACACTAG) (LTG core: CT, RTG core: GT) | 0.217 | –
5 | AAACACACTTGGGTTCTAACCTGTTGCCTAG [AAACACACTAG_LTGcore_CT_RTGcore_CT] (site AAACACACTAG) (LTG core: CT, RTG core: CT) | 2 | –
6 | AAACACACTTGGGTTCTAACCTGTTGCCTCA [AAACACACTAG_LTGcore_CT_RTGcore_TG] (site AAACACACTAG) (LTG core: CT, RTG core: TG) | 0.985 | –
7 | AAACACACTTGGGTTCTAACCTGTTGCCTTA [AAACACACTAG_LTGcore_CT_RTGcore_TA] (site AAACACACTAG) (LTG core: CT, RTG core: TA) | 0.852 | –
8 | AAACACATCTGGGTTCTAACCTGTTGCCTGA [AAACACACTAG_LTGcore_TC_RTGcore_TC] (site AAACACACTAG) (LTG core: TC, RTG core: TC) | 0.505 | –
9 | AAACAGTAATGGGTTCTAACCTGTTGCCTAG [AAACAGTCTAG_LTGcore_AA_RTGcore_CT] (site AAACAGTCTAG) (LTG core: AA, RTG core: CT) | 0.01 | –
10 | AAACAGTACTGGGTTCTAACCTGTTGCCTAG [AAACAGTCTAG_LTGcore_AC_RTGcore_CT] (site AAACAGTCTAG) (LTG core: AC, RTG core: CT) | 0.0247 | –
11 | AAACAGTCATGGGTTCTAACCTGTTGCCTAG [AAACAGTCTAG_LTGcore_CA_RTGcore_CT] (site AAACAGTCTAG) (LTG core: CA, RTG core: CT) | 1.38 | –
12 | AAACAGTCATGGGTTCTAACCTGTTGCCTTG [AAACAGTCTAG_LTGcore_CA_RTGcore_CA] (site AAACAGTCTAG) (LTG core: CA, RTG core: CA) | 0.25 | –
13 | AAACAGTCGTGGGTTCTAACCTGTTGCCTCG [AAACAGTCTAG_LTGcore_CG_RTGcore_CG] (site AAACAGTCTAG) (LTG core: CG, RTG core: CG) | 0.227 | –
14 | AAACAGTCTTGGGTTCTAACCTGTTGCCTAT [AAACAGTCTAG_LTGcore_CT_RTGcore_AT] (site AAACAGTCTAG) (LTG core: CT, RTG core: AT) | 1.32 | –
15 | AAACAGTCTTGGGTTCTAACCTGTTGCCTCC [AAACAGTCTAG_LTGcore_CT_RTGcore_GG] (site AAACAGTCTAG) (LTG core: CT, RTG core: GG) | 1.4 | –
16 | AAACAGTGATGGGTTCTAACCTGTTGCCTAG [AAACAGTCTAG_LTGcore_GA_RTGcore_CT] (site AAACAGTCTAG) (LTG core: GA, RTG core: CT) | 0.192 | –
17 | AAACAGTGATGGGTTCTAACCTGTTGCCTTC [AAACAGTCTAG_LTGcore_GA_RTGcore_GA] (site AAACAGTCTAG) (LTG core: GA, RTG core: GA) | 0.0385 | –
18 | AAACAGTGGTGGGTTCTAACCTGTTGCCTAG [AAACAGTCTAG_LTGcore_GG_RTGcore_CT] (site AAACAGTCTAG) (LTG core: GG, RTG core: CT) | 0.0371 | –
19 | AAACAGTTGTGGGTTCTAACCTGTTGCCTCA [AAACAGTCTAG_LTGcore_TG_RTGcore_TG] (site AAACAGTCTAG) (LTG core: TG, RTG core: TG) | 0.0424 | –
20 | AAACAGTTTTGGGTTCTAACCTGTTGCCTAG [AAACAGTCTAG_LTGcore_TT_RTGcore_CT] (site AAACAGTCTAG) (LTG core: TT, RTG core: CT) | 0.109 | –

Row | Sequence | recombinant barcode read abundance (log10) [1] | recombinant barcode read abundance (log10) [2]
21 | AAACATGAATGGGTTCTAACCTGTTGCCTAG [AAACATGCTAG_LTGcore_AA_RTGcore_CT] (site AAACATGCTAG) (LTG core: AA, RTG core: CT) | 0 | –
22 | AAACATGACTGGGTTCTAACCTGTTGCCTGT [AAACATGCTAG_LTGcore_AC_RTGcore_AC] (site AAACATGCTAG) (LTG core: AC, RTG core: AC) | 0.123 | –
23 | AAACATGCTTGGGTTCTAACCTGTTGCCTAC [AAACATGCTAG_LTGcore_CT_RTGcore_GT] (site AAACATGCTAG) (LTG core: CT, RTG core: GT) | 1.05 | –
24 | AAACATGCTTGGGTTCTAACCTGTTGCCTGC [AAACATGCTAG_LTGcore_CT_RTGcore_GC] (site AAACATGCTAG) (LTG core: CT, RTG core: GC) | 0.756 | –
25 | TTGATATCTTGGGTTCTAACCTGTTGCCT (site TTGAAATCTAG) | – | 0.0834
26 | TTGATATCTTGGGTTCTAACCTGTTGCCT (site TTGACATCTAG) | – | 0.264
27 | TTGATATCTTGGGTTCTAACCTGTTGCCT (site TTGAGATCTAG) | – | 0.0244
28 | TTGATATCTTGGGTTCTAACCTGTTGCCT (site TTGATATCTAG) | – | 0.149
29 | TTGATGACTTGGGTTCTAACCTGTTGCCT (site TTGATGACTAG) | – | 1.25
30 | TTGATGACTTGGGTTCTAACCTGTTGCCT (site TTGTAGACTAG) | – | 0.103
31 | TTGCATTCTTGGGTTCTAACCTGTTGCTG (site AAAGGGGCTAG) | – | 0.147
32 | TTGCATTCTTGGGTTCTAACCTGTTGCTG (site TTGCATTCTCA) | – | 0.962
33 | TTGCGGCCTTGGGTTCTAACCTGTTGCAG (site CAAACTACTTG) | – | 0.0363
34 | TTGCGGCCTTGGGTTCTAACCTGTTGCAG (site TTGCGGCCTCT) | – | 1.78
35 | TTGGACACTTGGGTTCTAACCTGTTGCCT (site TTGGACACTAG) | – | 2.33
36 | TTGGACACTTGGGTTCTAACCTGTTGCCT (site TTGGCCACTAG) | – | 0.0571
37 | TTGGACACTTGGGTTCTAACCTGTTGCCT (site TTGGGCACTAG) | – | 0.327
38 | TTGGACACTTGGGTTCTAACCTGTTGCCT (site TTGGTCACTAG) | – | 0.227
39 | TTGGACGCTTGGGTTCTAACCTGTTGCCT (site TTGGACGCTAG) | – | 2.37
40 | TTGGACGCTTGGGTTCTAACCTGTTGCCT (site TTGGCCGCTAG) | – | 0.335

Row | Sequence | recombinant barcode read abundance (log10) [1] | recombinant barcode read abundance (log10) [2]
41 | TTGGACGCTTGGGTTCTAACCTGTTGCCT (site TTGGGCGCTAG) | – | 0.838
42 | TTGGACGCTTGGGTTCTAACCTGTTGCCT (site TTGGTCGCTAG) | – | 0.133
43 | TTGGGTGCTTGGGTTCTAACCTGTTGCCG (site TTGGGTGCTCG) | – | 1.81
44 | TTGGGTGCTTGGGTTCTAACCTGTTGCCG (site TTGGGTTCTAG) | – | 0.0649
45 | TTGGTTCCTTGGGTTCTAACCTGTTGCCT (site TTGGTACCTAG) | – | 0.155
46 | TTGGTTCCTTGGGTTCTAACCTGTTGCCT (site TTGGTCCCTAG) | – | 0.0439
47 | TTGGTTCCTTGGGTTCTAACCTGTTGCCT (site TTGGTGCCTAG) | – | 0.43
48 | TTGGTTCCTTGGGTTCTAACCTGTTGCCT (site TTGGTTCCTAG) | – | 2.07
49 | TTGTAAGCTTGGGTTCTAACCTGTTGCCG (site TTGTAAGCTCG) | – | 0.653
50 | TTGTAAGCTTGGGTTCTAACCTGTTGCCG (site TTGTGAGCTCC) | – | 0.441
51 | TTGTACACTTGGGTTCTAACCTGTTGCCC (site CACATGCCTCA) | – | 0.452
52 | TTGTACACTTGGGTTCTAACCTGTTGCCC (site TTGTACACTGG) | – | 0.996
53 | TTGTCTCCTTGGGTTCTAACCTGTTGCCT (site ATGTCTCCTAG) | – | 0.0689
54 | TTGTCTCCTTGGGTTCTAACCTGTTGCCT (site CTGTCTCCTAG) | – | 0.0237
55 | TTGTCTCCTTGGGTTCTAACCTGTTGCCT (site GTGTCTCCTAG) | – | 0.109
56 | TTGTCTCCTTGGGTTCTAACCTGTTGCCT (site TTGTCTCCTAG) | – | 0.304
57 | TTGTGTTCTTGGGTTCTAACCTGTTGCTT (site TTGTACTCTAA) | – | 0.00637
58 | TTGTGTTCTTGGGTTCTAACCTGTTGCTT (site TTGTGTTCTAA) | – | 0.159
